Data from patent publication EP2926812A1, “USE OF ARTEMETHER IN PREPARATION OF DRUG FOR TREATING LEUKEMIA” (Kunming Pharmaceutical Corp., priority 2012, dated 2014).

What was measured:
[1] = mouse, in vivo
Procedure: (§1) Nude mice were subjected to a 3.0Gy whole-body irradiation, after subcutaneous inoculation of the K562 cells. One week after inoculation, nude mice with visible tumors were divided into the following 5 groups each consisting of 6 animals. The following dosages were administered for 3 continuous weeks, with 5 doses per week, a total of 15 doses.
(§2) Nude mice were subjected to a 3.0Gy whole-body irradiation, after subcutaneous inoculation of the K562 cells. One week after inoculation, nude mice with visible tumors were divided into the following 5 groups each consisting of 6 nude mice.
(§3) High dosage group: intraperitoneal injection of artemether at 100 ml/kg. The dosage was administered for 3 weeks, with 5 doses per week, a total of 15 doses.
(§4) Middle dosage group: intraperitoneal injection of artemether at 60 ml/kg. The dosage was administered for 3 weeks, with 7 doses per week, a total of 21 doses.
(§5) Low dosage group: intraperitoneal injection of artemether at 40 ml/kg. The dosage was administered for 3 weeks, with 7 doses per week, a total of 21 doses.

[2] = tested on: K562 nude mice transplanted tumor; assay: Inhibition of growth of K562 nude mice transplanted tumor (pre-trial, experiment 1, experiment 2); type: in vivo, Balb/c nude mice; settings: for tumor sizes: n=6
Source text: 2.4 K562 cell: primary K562 cell is derived from bone marrow of a patient having leukemia, introduced by Blood Research Institute from abroad, stored and passaged in Pathologic Cell Bank; cultured in RPMI1640 medium (comprising 10% fetal bovine serum).
2.6 experimental animal: Balb/c nude mice, 4~5 weeks old, weight: 17~20 g, gender: half male and half female. Experimental Animal Institute of the Chinese Academy of Medical Sciences, certification number of experimental animals: SCXK (JING) 2005-0013.
3.1.1 Balb/c nude mice were subjected to 3.0Gy whole-body irradiation, after subcutaneous inoculation of primary K562 cells. About 4 weeks after inoculation, tumor masses in growing were removed and transplanted into […], and this process was repeated for 2~3 passages to establish high oncogenic K562 cell line.
(§6) 3.1.2 Nude mice were subjected to 3.0Gy whole-body irradiation, after subcutaneous inoculation of the K562 cells. One week after inoculation, nude mice with visible tumors were divided into the following 4 groups each consisting of 6 animals. The following dosages were administered for 3 continuous weeks, with 7 doses per week, a total of 21 doses.
Model control group: intraperitoneal injection of 20% aqueous solution of excipient at 0.2 ml/animal.
High dosage group: intraperitoneal injection of artemether at 150 ml/kg.
Middle dosage group: intraperitoneal injection of artemether at 100 ml/kg.
Low dosage group: intraperitoneal injection of artemether at 50 ml/kg.
as §1
Positive control group: intraperitoneal injection of cyclophosphamide at 10 ml/kg.
High dosage group: intraperitoneal injection of artemether at 100 ml/kg.
Middle dosage group: intraperitoneal injection of artemether at 60 ml/kg.
Low dosage group: intraperitoneal injection of artemether at 40 ml/kg.
as §2
Model control group: intraperitoneal injection of 20% solution of excipient at 0.2ml/animal. The dosage was administered for 3 weeks, with 7 doses per week, a total of 21 doses.
Positive control group: intraperitoneal injection of cyclophosphamide at 10 ml/kg. The dosage was administered for 3 weeks, with 7 doses per week, a total of 21 doses.
as §3, §4, §5

[3] = tested on: K562 nude mice transplanted tumor; assay: Apoptosis of tumor cells from tumor-bearing animals (pre-trial); type: in vivo, Balb/c nude mice; settings: 21 doses
Procedure: as §6
The effect of the drug on the apoptosis of the tumor cell: from the result of pre-trial (table 3), it appears that the apoptosis ratio in control group is higher than that in the treated group. In fact, this is because the tutor of control group grows more rapidly, has a larger volume, and thus a more significant necrosis. […] However, cells which are not inhibited by the drug form a tumor mass that are not different much from the tumor mass in control group. Therefore, in a mechanism study, tumor cells in vivo should not be used, and an in vitro test is preferred.

**Q.** What does the source list for `CO[C@H]1O[C@@H]2O[C@@]3(C)CC[C@H]4[C@H](C)CC[C@@H]([C@H]1C)[C@@]24OO3` [artemether]?
**A.** toxicity [1]: without toxicity; tumor sizes ([2]; experiment 1, High dosage group: artemether 100 ml/kg intraperitoneal, 15 doses in 3 weeks, 1 week after inoculation): 55.6±11.4 mm3; tumor sizes ([2]; experiment 1, High dosage group: artemether 100 ml/kg intraperitoneal, 15 doses in 3 weeks, 2 weeks after inoculation): 72.9±70.8 mm3; tumor sizes ([2]; experiment 1, High dosage group: artemether 100 ml/kg intraperitoneal, 15 doses in 3 weeks, 3 weeks after inoculation): 307.9±223.2 mm3; tumor sizes ([2]; experiment 1, High dosage group: artemether 100 ml/kg intraperitoneal, 15 doses in 3 weeks, 4 weeks after inoculation): 489.2±199.9 mm3; tumor mass ([2]; experiment 1, High dosage group: artemether 100 ml/kg intraperitoneal, 15 doses, 4 weeks after inoculation): 340.0 ± 237.6 mg; tumor sizes ([2]; experiment 1, Low dosage group: artemether 40 ml/kg intraperitoneal, 15 doses in 3 weeks, 1 week after inoculation): 42.0±9.0 mm3; tumor sizes ([2]; experiment 1, Low dosage group: artemether 40 ml/kg intraperitoneal, 15 doses in 3 weeks, 2 weeks after inoculation): 148.4±75.6 mm3; tumor sizes ([2]; experiment 1, Low dosage group: artemether 40 ml/kg intraperitoneal, 15 doses in 3 weeks, 3 weeks after inoculation): 432.6±332.5 mm3; tumor sizes ([2]; experiment 1, Low dosage group: artemether 40 ml/kg intraperitoneal, 15 doses in 3 weeks, 4 weeks after inoculation): 1127.7±142.8 mm3; tumor mass ([2]; experiment 1, Low dosage group: artemether 40 ml/kg intraperitoneal, 15 doses, 4 weeks after inoculation): 1135.0 ± 457.2 mg; tumor sizes ([2]; experiment 1, Middle dosage group: artemether 60 ml/kg intraperitoneal, 15 doses in 3 weeks, 1 week after inoculation): 51.3±4.5 mm3; tumor sizes ([2]; experiment 1, Middle dosage group: artemether 60 ml/kg intraperitoneal, 15 doses in 3 weeks, 2 weeks after inoculation): 127.5±22.3 mm3; tumor sizes ([2]; experiment 1, Middle dosage group: artemether 60 ml/kg intraperitoneal, 15 doses in 3 weeks, 3 weeks after inoculation): 376.7±135.8 mm3; tumor sizes ([2]; experiment 1, Middle dosage group: artemether 60 ml/kg intraperitoneal, 15 doses in 3 weeks, 4 weeks after inoculation): 1035.6±248.5 mm3; tumor mass ([2]; experiment 1, Middle dosage group: artemether 60 ml/kg intraperitoneal, 15 doses, 4 weeks after inoculation): 736.7 ± 247.6 mg; tumor sizes ([2]; experiment 2, High dosage group: artemether 100 ml/kg intraperitoneal, 15 doses in 3 weeks, 1 week after inoculation): 33.9±14.4 mm3; tumor sizes ([2]; experiment 2, High dosage group: artemether 100 ml/kg intraperitoneal, 15 doses in 3 weeks, 2 weeks after inoculation): 75.5±27.2 mm3; tumor sizes ([2]; experiment 2, High dosage group: artemether 100 ml/kg intraperitoneal, 15 doses in 3 weeks, 3 weeks after inoculation): 137.1±101.6 mm3; tumor sizes ([2]; experiment 2, High dosage group: artemether 100 ml/kg intraperitoneal, 15 doses in 3 weeks, 4 weeks after inoculation): 291.7±191.5 mm3; tumor mass ([2]; experiment 2, High dosage group: artemether 100 ml/kg intraperitoneal, 15 doses, 4 weeks after inoculation): 230 ± 1153.4 mg; tumor sizes ([2]; experiment 2, Low dosage group: artemether 40 ml/kg intraperitoneal, 21 doses in 3 weeks, 1 week after inoculation): 26.7±5.9 mm3; tumor sizes ([2]; experiment 2, Low dosage group: artemether 40 ml/kg intraperitoneal, 21 doses in 3 weeks, 2 weeks after inoculation): 203.7±127.3 mm3; tumor sizes ([2]; experiment 2, Low dosage group: artemether 40 ml/kg intraperitoneal, 21 doses in 3 weeks, 3 weeks after inoculation): 297.4±86.6 mm3; tumor sizes ([2]; experiment 2, Low dosage group: artemether 40 ml/kg intraperitoneal, 21 doses in 3 weeks, 4 weeks after inoculation): 729.2±272.8 mm3; tumor mass ([2]; experiment 2, Low dosage group: artemether 40 ml/kg intraperitoneal, 21 doses, 4 weeks after inoculation): 645 ± 314.7 mg; tumor sizes ([2]; experiment 2, Middle dosage group: artemether 60 ml/kg intraperitoneal, 21 doses in 3 weeks, 1 week after inoculation): 22.7±7.4 mm3; tumor sizes ([2]; experiment 2, Middle dosage group: artemether 60 ml/kg intraperitoneal, 21 doses in 3 weeks, 2 weeks after inoculation): 118.4±129.0 mm3; tumor sizes ([2]; experiment 2, Middle dosage group: artemether 60 ml/kg intraperitoneal, 21 doses in 3 weeks, 3 weeks after inoculation): 201.2±98.9 mm3; tumor sizes ([2]; experiment 2, Middle dosage group: artemether 60 ml/kg intraperitoneal, 21 doses in 3 weeks, 4 weeks after inoculation): 746.6±393.7 mm3; tumor mass ([2]; experiment 2, Middle dosage group: artemether 60 ml/kg intraperitoneal, 21 doses, 4 weeks after inoculation): 630 ± 418.9 mg; inhibition ratio ([2]; of tumor mass, experiment 1, Low dosage group: artemether 40 ml/kg intraperitoneal, 15 doses, 4 weeks after inoculation, listed as artemether lyophilized powder for injection): no significant inhibition; inhibition ratio ([2]; of tumor mass, experiment 1, Middle dosage group: artemether 60 ml/kg intraperitoneal, 15 doses, 4 weeks after inoculation, listed as artemether lyophilized powder for injection): 31%; inhibition ratio ([2]; of tumor mass, experiment 2, Low dosage group: artemether 40 ml/kg intraperitoneal, 21 doses, 4 weeks after inoculation, listed as artemether lyophilized powder for injection): 55%; inhibition ratio ([2]; of tumor mass, experiment 2, Middle dosage group: artemether 60 ml/kg intraperitoneal, 21 doses, 4 weeks after inoculation, listed as artemether lyophilized powder for injection): 56%; inhibition ratio ([2]; of tumor mass, pre-trial, Low dosage group: artemether 50 ml/kg intraperitoneal, 21 doses, 4 weeks after administration): 41.1%; inhibition ratio ([2]; of tumor mass, pre-trial, Middle dosage group: artemether 100 ml/kg intraperitoneal, 21 doses, 4 weeks after administration): 64.9%; inhibition ratio ([2]; of tumor volume, pre-trial, Low dosage group: artemether 50 ml/kg intraperitoneal, 21 doses, 3 weeks after administration): 43.6%; inhibition ratio ([2]; of tumor volume, pre-trial, Low dosage group: artemether 50 ml/kg intraperitoneal, 21 doses, 4 weeks after administration): 44.6%; inhibition ratio ([2]; of tumor volume, pre-trial, Middle dosage group: artemether 100 ml/kg intraperitoneal, 21 doses, 3 weeks after administration): 70.3%; inhibition ratio ([2]; of tumor volume, pre-trial, Middle dosage group: artemether 100 ml/kg intraperitoneal, 21 doses, 4 weeks after administration): 69.1%; tumor volume ([2]; pre-trial, High dosage group: artemether 150 ml/kg intraperitoneal, 21 doses in 3 weeks, 1 week after administration): 55.3 mm3; tumor volume ([2]; pre-trial, High dosage group: artemether 150 ml/kg intraperitoneal, 21 doses in 3 weeks, 2 weeks after administration): 136.8 mm3; tumor volume ([2]; pre-trial, High dosage group: artemether 150 ml/kg intraperitoneal, 21 doses in 3 weeks, 3 weeks after administration): 454.1 mm3; tumor volume ([2]; pre-trial, High dosage group: artemether 150 ml/kg intraperitoneal, 21 doses in 3 weeks, 4 weeks after administration): 663.1 mm3; tumor mass ([2]; pre-trial, High dosage group: artemether 150 ml/kg intraperitoneal, 21 doses, 4 weeks after administration): 590 mg; tumor volume ([2]; pre-trial, Low dosage group: artemether 50 ml/kg intraperitoneal, 21 doses in 3 weeks, 1 week after administration): 174.9±74.7 mm3; tumor volume ([2]; pre-trial, Low dosage group: artemether 50 ml/kg intraperitoneal, 21 doses in 3 weeks, 2 weeks after administration): 535.5±253.42 mm3; tumor volume ([2]; pre-trial, Low dosage group: artemether 50 ml/kg intraperitoneal, 21 doses in 3 weeks, 3 weeks after administration): 997.1±327.71 mm3; tumor volume ([2]; pre-trial, Low dosage group: artemether 50 ml/kg intraperitoneal, 21 doses in 3 weeks, 4 weeks after administration): 1672.0 ± 331.0 mm3; tumor mass ([2]; pre-trial, Low dosage group: artemether 50 ml/kg intraperitoneal, 21 doses, 4 weeks after administration): 1436 ± 281.3 mg; tumor volume ([2]; pre-trial, Middle dosage group: artemether 100 ml/kg intraperitoneal, 21 doses in 3 weeks, 1 week after administration): 93.6±43.6 mm3; tumor volume ([2]; pre-trial, Middle dosage group: artemether 100 ml/kg intraperitoneal, 21 doses in 3 weeks, 2 weeks after administration): 219.9 ± 110.83 mm3; tumor volume ([2]; pre-trial, Middle dosage group: artemether 100 ml/kg intraperitoneal, 21 doses in 3 weeks, 3 weeks after administration): 524.6±265.57 mm3; tumor volume ([2]; pre-trial, Middle dosage group: artemether 100 ml/kg intraperitoneal, 21 doses in 3 weeks, 4 weeks after administration): 931.8±307.9 mm3; tumor mass ([2]; pre-trial, Middle dosage group: artemether 100 ml/kg intraperitoneal, 21 doses, 4 weeks after administration): 857 ± 574.4 mg; apoptosis ratio ([3]; High dosage group: artemether 150 intraperitoneal): 2.63%; apoptosis ratio ([3]; Low dosage group: artemether 50 intraperitoneal): 1.37±0.47%; apoptosis ratio ([3]; Middle dosage group: artemether 100 intraperitoneal): 2.04 ±1.58%
